For 18 compounds, TGI and GI50 results are on record in PubChem BioAssay (NCI).

Some test systems named below: EKVX NSCLC; HCT-116 colon; KM12 colon; M14 melanoma; NCI-H460 lung; RXF 393 renal; SK-MEL-28 melanoma; SN12C renal; SW-620 colon; HOP-92 NSCLC.
Common to all, as to test: NCI-60 cell line screen, 48 h

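Method: 48-hour compound exposure of cells in 96-well plates, five concentrations, linear interpolation of endpoints. Here, GI50 denotes the concentration required for 50% inhibition of growth. TGI: concentration producing complete growth inhibition.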

`Cc1cccc(NC(N)=S)c1`: the TGI in the assay with EKVX NSCLC, with HCT-116 colon, in the assay with KM12 colon, in the assay with M14 melanoma, in the assay with NCI-H460 lung and in the assay on RXF 393 renal was more than 100 µM each time. The TGI in the assay on SK-MEL-28 melanoma and in the assay with SN12C renal was more than 100 µM in each case.

`O=C(O)\C=C/C=C/C=C/C=C/C(=O)O`: the TGI with EKVX NSCLC, in the assay with HCT-116 colon, in the assay on KM12 colon, with M14 melanoma, with NCI-H460 lung and in the assay on RXF 393 renal was more than 100 µM throughout. For the same compound, the TGI in the assay on SK-MEL-28 melanoma, in the assay on SN12C renal and in the assay on SW-620 colon was more than 100 µM throughout.

Turning to `COc1ccc(C(=O)NNC(=O)c2nsc3ccccc23)cc1`, the TGI with EKVX NSCLC, with HCT-116 colon, in the assay on HOP-92 NSCLC, in the assay on KM12 colon, with M14 melanoma and in the assay with RXF 393 renal was more than 100 µM throughout. Also, the TGI with SK-MEL-28 melanoma, in the assay with SN12C renal and in the assay on SW-620 colon was more than 100 µM each time.

Regarding `N=C(N)SC(c1ccccc1)c1ccccc1`, the TGI in the assay with EKVX NSCLC was found to be 33.6 µM; in the assay with HCT-116 colon it was 24.6 µM; in the assay with HOP-92 NSCLC it was 22.9 µM; with KM12 colon, 32.9 µM; in the assay on M14 melanoma it was 23.7 µM; with NCI-H460 lung, 37.1 µM. In addition, the TGI turned out to be 19.4 µM in the assay on RXF 393 renal, 18.6 µM in the assay on SK-MEL-28 melanoma, 32.7 µM in the assay on SN12C renal and 44.6 µM in the assay on SW-620 colon.

With `Cn1ncc2c(=O)[nH]c(-c3ccccc3)nc21`, the TGI in the assay on EKVX NSCLC, in the assay on KM12 colon, with M14 melanoma, in the assay on RXF 393 renal, with SK-MEL-28 melanoma and in the assay on SN12C renal was more than 100 µM throughout. Also, the TGI in the assay with SW-620 colon was more than 100 µM.

Consider `NS(=O)(=O)c1ccc(C(=O)O)cc1`, for which the TGI in the assay on EKVX NSCLC, in the assay on HCT-116 colon, in the assay with HOP-92 NSCLC, in the assay with KM12 colon, in the assay with M14 melanoma and with RXF 393 renal was more than 100 µM in each case. Moreover, the TGI in the assay on SK-MEL-28 melanoma, in the assay with SN12C renal and in the assay with SW-620 colon was more than 100 µM in each case.

`COc1ccc2c(c1)C(=O)c1c-2n(CCCCl)c(=O)c2cc([N+](=O)[O-])ccc12`: the GI50 is 30.8 µM with EKVX NSCLC; 0.271 µM in the assay with KM12 colon; less than 0.0178 µM in the assay with NCI-H460 lung; 1.58 µM in the assay on RXF 393 renal; 2.64 µM in the assay on SK-MEL-28 melanoma; 0.123 µM in the assay on SW-620 colon. Further, the TGI is more than 100 µM with EKVX NSCLC; 0.737 µM in the assay with HCT-116 colon; 0.361 µM with M14 melanoma; more than 100 µM in the assay with RXF 393 renal; more than 100 µM in the assay with SK-MEL-28 melanoma; more than 20.3 µM in the assay on SN12C renal.

For the compound `CC(C)(c1ccccc1)c1ccc(Oc2ccc3c(c2)-c2nc-3nc3[nH]c(nc4nc(nc5[nH]c(n2)c2ccc(Oc6ccc(C(C)(C)c7ccccc7)cc6)cc52)-c2cc(Oc5ccc(C(C)(C)c6ccccc6)cc5)ccc2-4)c2ccc(Oc4ccc(C(C)(C)c5ccccc5)cc4)cc32)cc1`, the TGI in the assay on EKVX NSCLC, in the assay with HCT-116 colon, with HOP-92 NSCLC, with KM12 colon, in the assay on M14 melanoma and in the assay on NCI-H460 lung was more than 100 µM in each case. For the same compound, the TGI with RXF 393 renal is 97 µM; with SK-MEL-28 melanoma, more than 100 µM; in the assay on SW-620 colon it was more than 100 µM.

`Nc1ccc([As](=O)(O)O)cc1`: the TGI in the assay with EKVX NSCLC, with HCT-116 colon, with HOP-92 NSCLC, in the assay with KM12 colon, in the assay on M14 melanoma and with NCI-H460 lung was more than 100 µM throughout. For the same compound, the TGI with RXF 393 renal, in the assay with SK-MEL-28 melanoma, with SN12C renal and in the assay on SW-620 colon was more than 100 µM throughout.

For the compound `Cc1nc2ccccc2c(=O)n1Nc1ccc(C(=O)O)cc1`, the TGI in the assay with EKVX NSCLC, in the assay with HCT-116 colon, with HOP-92 NSCLC, in the assay with KM12 colon, in the assay with NCI-H460 lung and in the assay with RXF 393 renal was more than 100 µM in each case. The TGI in the assay on SK-MEL-28 melanoma, with SN12C renal and with SW-620 colon was more than 100 µM throughout.

As for `COc1cc2c(cc1OCCCOc1cc3c(cc1OC)C(=O)N1CC(F)(F)C[C@H]1C=N3)N=C[C@@H]1CC(F)(F)CN1C2=O`, the GI50 was 1.66 µM in the assay with EKVX NSCLC; 0.415 µM with HCT-116 colon; 0.336 µM in the assay with HOP-92 NSCLC; 2.37 µM in the assay with KM12 colon; 0.698 µM in the assay on M14 melanoma; 0.0551 µM with NCI-H460 lung. Further, the GI50 in the assay with RXF 393 renal is 1.38 µM; in the assay on SK-MEL-28 melanoma, 1.95 µM; with SN12C renal, 0.269 µM; in the assay on SW-620 colon, 0.469 µM. Moreover, the TGI in the assay with EKVX NSCLC came out at 7.06 µM; with HCT-116 colon, 2.25 µM; in the assay with HOP-92 NSCLC it was 7.73 µM; in the assay with KM12 colon it was 13.6 µM; in the assay on M14 melanoma, 3.7 µM; in the assay with NCI-H460 lung, 2.45 µM. The TGI was 2.87 µM in the assay with RXF 393 renal, 5.47 µM with SK-MEL-28 melanoma, more than 37.2 µM with SN12C renal and 4.03 µM in the assay on SW-620 colon.

For the compound `O=C1CC(c2ccccc2)NCCCCN2CC(CN1)C(C(O)c1ccccc1)C2=O` (stereo unspecified), the TGI in the assay on EKVX NSCLC, with HCT-116 colon, with HOP-92 NSCLC, with KM12 colon, in the assay on M14 melanoma and with NCI-H460 lung was more than 100 µM each time. The TGI with RXF 393 renal, with SK-MEL-28 melanoma, in the assay with SN12C renal and with SW-620 colon was more than 100 µM throughout.

Turning to `CC1(C)CCc2cc3c(cc2O1)OC(C)(C)CC3=O`, the TGI with EKVX NSCLC is more than 100 µM; with HCT-116 colon, more than 100 µM; with HOP-92 NSCLC, 70.7 µM; in the assay with KM12 colon, more than 100 µM; in the assay on M14 melanoma, more than 100 µM; in the assay with NCI-H460 lung, more than 100 µM. For the same compound, the TGI in the assay with SN12C renal and in the assay with SW-620 colon was more than 100 µM throughout.

Regarding `Cc1cc(N2CCCCC2)nc(NCc2cc(Nc3ccnc4cc(Cl)ccc34)ccc2F)n1`, the GI50 is 1.62 µM with EKVX NSCLC; 1.64 µM with HCT-116 colon; 1.69 µM with KM12 colon; 1.92 µM in the assay on M14 melanoma; 1.99 µM in the assay with NCI-H460 lung; 1.79 µM in the assay with RXF 393 renal. Besides, the values for the GI50 with SN12C renal and in the assay on SW-620 colon were 1.67 µM and 1.45 µM, respectively. Besides, the TGI is 3.77 µM with EKVX NSCLC; 3.5 µM with HCT-116 colon; 3.29 µM in the assay with KM12 colon; 3.69 µM in the assay with M14 melanoma; 4.17 µM with NCI-H460 lung; 3.47 µM in the assay with RXF 393 renal. The TGI in the assay with SN12C renal is 3.62 µM; with SW-620 colon it was 3.59 µM.

On to `CCc1cc(C)cc2[n+]1CC=C2C`, for which the TGI in the assay with EKVX NSCLC, with HOP-92 NSCLC, with KM12 colon, in the assay with M14 melanoma, with NCI-H460 lung and in the assay with RXF 393 renal was more than 100 µM in each case. Further, the TGI in the assay with SK-MEL-28 melanoma, with SN12C renal and in the assay on SW-620 colon was more than 100 µM each time.

For `CC1(C)CCCC2(C)C3=C(CCC12)C(=O)OC3` (stereo unspecified), the TGI with EKVX NSCLC, with HCT-116 colon, in the assay on HOP-92 NSCLC, with KM12 colon, with M14 melanoma and in the assay with RXF 393 renal was more than 100 µM throughout. Besides, the TGI with SK-MEL-28 melanoma, with SN12C renal and in the assay on SW-620 colon was more than 100 µM in each case.

Take `CCCCCCCCCCCCCCC(C(=O)[O-])[n+]1ccccc1` (stereo unspecified): the TGI with EKVX NSCLC, in the assay with HCT-116 colon, in the assay with HOP-92 NSCLC, with KM12 colon, in the assay with M14 melanoma and in the assay on NCI-H460 lung was more than 100 µM in each case. For the same compound, the TGI in the assay with RXF 393 renal was 74.7 µM; in the assay on SK-MEL-28 melanoma, more than 100 µM; in the assay with SN12C renal, more than 100 µM; with SW-620 colon it was more than 100 µM.

As to `CN(C)C=O.CN(C)C=O.CN1C(C(=O)Nc2ccccn2)=C([O-])c2ccccc2S1(=O)=O.CN1C(C(=O)Nc2ccccn2)=C([O-])c2ccccc2S1(=O)=O.[Cu+2]`, the TGI was more than 100 µM in the assay with EKVX NSCLC; more than 100 µM in the assay on HCT-116 colon; 51.1 µM in the assay on HOP-92 NSCLC; more than 100 µM with KM12 colon; more than 100 µM in the assay on M14 melanoma; more than 100 µM in the assay with NCI-H460 lung. The TGI in the assay on RXF 393 renal was 61.7 µM; in the assay with SK-MEL-28 melanoma, more than 100 µM; with SN12C renal it was more than 100 µM; in the assay with SW-620 colon it was more than 100 µM. In addition, the figures for the GI50 in the assay with HOP-92 NSCLC and in the assay with NCI-H460 lung were 22.1 µM and 32.5 µM, respectively.
